Measurements: ChEMBL document CHEMBL1150747, “Isolation of deoxyshikonin, an antidermatophytic principle from Lithospermum erythrorhizon cell cultures” (1988)
Values after ≈ are worked out from the molar mass of the structure shown. Active and inactive are the calls of the source. No cut-off for these calls is given here.

Tests used:
Bacillus subtilis = test: Antimicrobial activity against Bacillus subtilis PCI 219 IFO 3513 after 24 hrs by agar dilution streak method; format: functional; settings: PCI 219 IFO 3513, 24 h
Saccharomyces = test: Antimicrobial activity against Saccharomyces sake IFO 0305 after 7 days by agar dilution streak method; format: functional; settings: IFO 0305, 168 h
Staphylococcus aureus = test: Antimicrobial activity against Staphylococcus aureus 209P IFO 12732 after 24 hrs by agar dilution streak method; format: functional; settings: 209P IFO 12732, 24 h
Micrococcus luteus = test: Antimicrobial activity against Micrococcus luteus IFO 12708 after 24 hrs by agar dilution streak method; format: functional; settings: IFO 12708, 24 h
Kocuria rosea = test: Antimicrobial activity against Micrococcus roseus IFO 3764 after 24 hrs by agar dilution streak method; format: functional; settings: IFO 3764, 24 h
Nannizzia gypsea = test: Antimicrobial activity against Microsporum gypseum IFO 8307 after 7 days by agar dilution streak method; format: functional; settings: IFO 8307, 168 h
[1] = tested on: Meyerozyma guilliermondii; test: Antimicrobial activity against Candida guilliermondii IFO 0454 at 200 ug/mL after 7 days by paper disk method; format: functional, organism-based
Epidermophyton floccosum = test: Antimicrobial activity against Epidermophyton floccosum IFO 9045 after 7 days by agar dilution streak method; format: functional; settings: IFO 9045, 168 h
[2] = tested on: Trichophyton mentagrophytes; test: Fungistatic activity against Trichophyton mentagrophytes IFO 5809 at 100 ug/mL after 7 days by liquid dilution method; format: functional, organism-based
Pichia norvegensis = test: Antimicrobial activity against Candida mycoderma IFO 0162 at 200 ug/mL after 7 days by paper disk method; format: functional, organism-based
[3] = tested on: Trichophyton tonsurans var. sulfureum; test: Antimicrobial activity against Trichophyton tonsurans var. sulfureum IFO 5945 after 7 days by agar dilution streak method; format: functional; settings: IFO 5945, 168 h
Serratia marcescens = test: Antimicrobial activity against Serratia marcescens IFO 12648 at 200 ug/mL after 24 hrs by paper disk method; format: functional, organism-based
Candida tropicalis = test: Antimicrobial activity against Candida tropicalis IFO 0006 at 200 ug/mL after 7 days by paper disk method; format: functional, organism-based
Cyberlindnera jadinii = test: Antimicrobial activity against Candida utilis […] at 200 ug/mL after 7 days by paper disk method; format: functional, organism-based
[4] = tested on: Trichophyton mentagrophytes; test: Antimicrobial activity against Trichophyton mentagrophytes IFO 5809 after 7 days by agar dilution streak method; format: functional; settings: IFO 5809, 168 h
Pseudomonas aeruginosa = test: Antimicrobial activity against Pseudomonas aeruginosa IFO 12689 at 200 ug/mL after 24 hrs by paper disk method; format: functional, organism-based
Escherichia coli = test: Antimicrobial activity against Escherichia coli NIHJ IFO 12734 at 200 ug/mL after 24 hrs by paper disk method; format: functional, organism-based
Trichophyton rubrum = test: Antimicrobial activity against Trichophyton rubrum IFO 5808 after 7 days by agar dilution streak method; format: functional; settings: IFO 5808, 168 h
Candida albicans = test: Antimicrobial activity against Candida albicans IFO 0197 at 200 ug/mL after 7 days by paper disk method; format: functional, organism-based

Compound	MIC (Bacillus subtilis) [µg/mL]	MIC (Saccharomyces) [µg/mL]	MIC (Staphylococcus aureus) [µg/mL]	MIC (Micrococcus luteus) [µg/mL]	MIC (Kocuria rosea) [µg/mL]	MIC (Nannizzia gypsea) [µg/mL]	Activity [1]	MIC (Epidermophyton floccosum) [µg/mL]	Activity [2]	Activity (Pichia norvegensis)	MIC [3] [µg/mL]	Activity (Serratia marcescens)	Activity (Candida tropicalis)	Activity (Cyberlindnera jadinii)	MIC [4] [µg/mL]	Activity (Pseudomonas aeruginosa)	Activity (Escherichia coli)	MIC (Trichophyton rubrum) [µg/mL]	Activity (Candida albicans)
O=C(N[C@H](CO)[C@H](O)c1ccc([N+](=O)[O-])cc1)C(Cl)Cl [CHLORAMPHENICOL]	6.2 (≈ 19.2 µM)	> 200	12.5 (≈ 38.7 µM)	6.2 (≈ 19.2 µM)	25 (≈ 77.4 µM)														
CC(C)=CCCC1=CC(=O)c2c(O)ccc(O)c2C1=O [DEOXYSHIKONIN]	200 (≈ 734 µM)	6.2 (≈ 22.8 µM)	200 (≈ 734 µM)	50 (≈ 184 µM)	100 (≈ 367 µM)	6.2 (≈ 22.8 µM)	inactive	6.2 (≈ 22.8 µM)	inactive	inactive	12.5 (≈ 45.9 µM)	inactive	inactive	inactive	12.5 (≈ 45.9 µM)	inactive	inactive	25 (≈ 91.8 µM)	inactive
COC1=CC(=O)C[C@@H](C)[C@]12Oc1c(Cl)c(OC)cc(OC)c1C2=O [GRISEOFULVIN]						1.5 (≈ 4.25 µM)		1.5 (≈ 4.25 µM)			3.1 (≈ 8.79 µM)				3.1 (≈ 8.79 µM)			3.1 (≈ 8.79 µM)	
CC(C)=CC[C@@H](O)C1=CC(=O)c2c(O)ccc(O)c2C1=O [SHIKONIN]	> 200	3.1 (≈ 10.8 µM)	> 200	100 (≈ 347 µM)	200 (≈ 694 µM)	12.5 (≈ 43.4 µM)	inactive	6.2 (≈ 21.5 µM)		inactive	25 (≈ 86.7 µM)	inactive	inactive	inactive	25 (≈ 86.7 µM)	inactive	inactive	25 (≈ 86.7 µM)	inactive
